The target in assay [1] is T1, 5-lipoxygenase (Rattus norvegicus, UniProt P12527).
T1 construct: endogenous in cells; host or cells: peritoneal neutrophils of male Sprague-Dawley rats, elicited by i.p. carrageenan (16 h)
T1 sequence (P12527 1-673): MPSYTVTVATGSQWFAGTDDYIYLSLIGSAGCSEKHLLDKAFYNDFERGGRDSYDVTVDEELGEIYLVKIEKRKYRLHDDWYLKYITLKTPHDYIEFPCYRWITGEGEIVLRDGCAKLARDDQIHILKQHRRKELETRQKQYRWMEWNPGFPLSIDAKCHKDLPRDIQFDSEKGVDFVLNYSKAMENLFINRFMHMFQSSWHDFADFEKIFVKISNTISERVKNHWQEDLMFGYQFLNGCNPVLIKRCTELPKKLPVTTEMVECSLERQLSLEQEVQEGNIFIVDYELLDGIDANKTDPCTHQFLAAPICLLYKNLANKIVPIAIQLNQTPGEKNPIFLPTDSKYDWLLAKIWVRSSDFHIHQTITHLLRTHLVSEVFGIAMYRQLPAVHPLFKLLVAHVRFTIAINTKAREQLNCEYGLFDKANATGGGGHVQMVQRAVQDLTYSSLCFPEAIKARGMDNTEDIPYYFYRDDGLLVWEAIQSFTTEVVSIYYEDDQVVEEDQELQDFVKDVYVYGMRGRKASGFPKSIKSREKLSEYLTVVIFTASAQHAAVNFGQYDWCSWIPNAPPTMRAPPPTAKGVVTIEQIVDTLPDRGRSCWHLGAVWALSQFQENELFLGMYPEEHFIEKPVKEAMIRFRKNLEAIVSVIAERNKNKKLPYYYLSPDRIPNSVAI
In words: Formation of leucotrien B4 by neutrophils (measure of 5-lipoxygenase activity), A23187 stimulated, RIA. Type of assay: cell-based, Sprague-Dawley rats. The conditions noted are these: rat peritoneal neutrophils (lambda-carageenan), 5 min preincubation at 37° C., A23187 2 μmol/l, read-out: IC50 LTB4. The protocol: (§1) The formation of prostaglandin D2 by neutrophils was used as a measure of the cyclooxygenase activity, and the formation of leucotrien B4 as a measure of the 5-lipoxygenase activity.
(§2) Male Sprague-Dawley rats (250-300 g) received 1 mg of lambda-carageenan (dissolved in 0.5 ml of distilled water) injected intraperitoneally.
(§3) After 16 hours, the rats were sacrificed by exposure to diethyl ether. 15 ml of Hanks balanced salt solution (HBSS) were injected i.p., the neutrophils were harvested by aspiration (10 ml) and were centrifuged (5 min, 100 g, 4° C.), the supernatant solution was decanted, and the cells were resuspended in HBSS at 4° C. to a concentration of 5×10^6 cells/ml.
(§4) 400 μl of cell suspension (2×10^6 cells), […] of compound dissolved in DMSO and 49.5 μl of HBSS were incubated at 37° C. for 5 min. Then 50 μl of A23187 (2 μmol/1 final concentration) were added and subsequently the mixture was again incubated at 37° C. for 5 min.
(§5) The reaction was stopped by centrifugation at 10,000 g for 3 s, and the supernatant liquid was transferred into precooled plastic tubes and left in an ice bath for a maximum of 1 h before starting the radioimmunoassay measurement.
(§6) PGD2 and LTB4 were measured after dilution with HBSS using commercial RIA kits.
(§7) The comparison substance was 6-chloro-2-methyl-N-(2-pyridyl)-2H-thieno[2,3-e]-1,2-thiazine-3-carboxamide 1,1-dioxide ("LORNOXICAM", Compound A).

Assay [2] concerns cyclooxygenase. Briefly: Formation of prostaglandin D2 by neutrophils (measure of cyclooxygenase activity), A23187 stimulated, RIA. It is filed as cell-based, Sprague-Dawley rats. The note with it: rat peritoneal neutrophils (lambda-carageenan), 5 min preincubation at 37° C., A23187 2 μmol/l, read-out: IC50 PGD2. The protocol:
as §1, §2, §3, §4, §5, §6, §7

As usually defined, the IC50 is the point on the concentration scale where inhibition reaches its midpoint.

Each structure is given as a SMILES string.

In the case of `CN1C(C(=O)Nc2nc(-c3ccc(-c4ccc(F)cc4)o3)cs2)=C(O)c2sc(-c3ccco3)cc2S1(=O)=O` [Compound 7, N-{4-[5-(4-Fluorophenyl)-2-furanyl]-2-thiazolyl}-6-(2-furanyl)-4-hydroxy-2-methyl-2H-thieno[2,3-e]-1,2-thiazine-3-carboxmide 1,1-dioxide], the IC50 in assay [1] amounted to 730 nM; in assay [2] it was 1600 nM.

On to `CN1C(C(=O)Nc2ccccn2)=C(O)c2sc(-c3ccccc3)cc2S1(=O)=O` [Compound 14, 4-Hydroxy-2-methyl-6-phenyl-N-(2-pyridinyl)-2H-thieno-[2,3-e]-1,2-thiazine-3-carboxamide 1,1-dioxide], for which the IC50 was more than 10000 nM in assay [1] and 38 nM in assay [2].

With `CN1C(C(=O)Nc2cccc(-c3cc4ccccc4o3)n2)=C(O)c2sc(-c3ccccc3)cc2S1(=O)=O` [Compound 17, N-[6-(2-Benzo[b]furyl)-2-pyridinyl]-4-hydroxy-2-methyl-6-phenyl-2H-thieno[2,3-e]-1,2-thiazine-3-carboxamide 1,1-dioxide], the IC50 in assay [1] came out at 1300 nM; in assay [2] it was 190 nM.

As to `CN1C(C(=O)Nc2nc(-c3ccc(Oc4ccc(F)cc4)o3)cs2)=C(O)c2sc(-c3ccco3)cc2S1(=O)=O` [Compound 5, N-{4[5-(4-Fluorophenoxy)-2-furanyl]-2-thiazolyl}-6-(2-furanyl)-4-hydroxy-2-methyl-2H-thieno[2,3-]-1,2-thiazine-3-carboxamide 1,1-dioxide], the figures for the IC50 in assay [1] and in assay [2] were 660 nM and 270 nM, respectively.

Turning to `CN1C(C(=O)Nc2cccc(-c3cc4ccccc4o3)n2)=C(O)c2sc(-c3cccs3)cc2S1(=O)=O` [Compound 18, N-[6-(2-Benzo[b]furyl)-2-pyridinyl]-4-hydroxy-2-methyl-6-(2-thienyl)-2H-thieno[2,3-e]-1,2-thiazine-3-carboxamide 1,1-dioxide], the values for the IC50 in assay [1] and in assay [2] were 1300 nM and 68 nM, respectively.

Regarding `CN1C(C(=O)Nc2ccccn2)=C(O)c2sc(-c3ccco3)cc2S1(=O)=O` [Compound 16, 6-(2-Furyl)-4-hydroxy-2-methyl-N-(2-pyridinyl)-2H-thieno[2,3-e]-1,2-thiazine-3-carboxamide 1,1-dioxide], the results for the IC50 in assay [1] and in assay [2] were more than 10000 nM and 9.6 nM, respectively.

Regarding `CN1C(C(=O)Nc2nc(-c3cc4ccccc4o3)co2)=C(O)c2sc(-c3ccco3)cc2S1(=O)=O` [Compound 11], the IC50 in assay [1] was determined as 2100 nM; in assay [2], 200 nM.

With `CN1C(C(=O)Nc2cccc(-c3cc4ccccc4o3)n2)=C(O)c2sc(-c3ccco3)cc2S1(=O)=O` [Compound 19, N-[6-(2-Benzo[b]furyl)-2-pyridinyl]-6-(2-furyl)-4-hydroxy-2-methyl-2H-thieno[2,3e]-1,2-thiazine-3-carboxamide 1,1-dioxide], the IC50 in assay [1] came to 1400 nM; in assay [2], 39 nM.

For `CN1C(C(=O)Nc2ccccn2)=C(O)c2sc(-c3cccs3)cc2S1(=O)=O` [Compound 15, 4-Hydroxy-2-methyl-N-(2-pyridinyl)-6-(2-thienyl)-2H-thieno[2,3-e]-1,2-thiazine-3-carboxamide 1,1-dioxide], the IC50 in assay [1] was more than 10000 nM; in assay [2] it was 3.5 nM.

As for `CN1C(C(=O)Nc2nc(-c3cc4ccccc4o3)cs2)=C(O)c2sc(-c3ccco3)cc2S1(=O)=O` [Compound 9, N-[4-(2-Benzo[b]furanyl)-2-thiazolyl]-6-(2-furanyl)-4-hydroxy-2-methyl-2H-thieno[2,3-e]-1,2-thiazine-3-carboxamide 1,1-dioxide], the IC50 in assay [1] was 1600 nM; in assay [2], 39 nM.

Take `CN1C(C(=O)Nc2nc(-c3ccc(-c4ccc(F)cc4)o3)cs2)=C(O)c2sc(Cl)cc2S1(=O)=O` [Compound 6, 6-Chloro-N-{4-[5-(4-fluorophenyl)-2-furanyl]-2-thiazolyl}-4-hydroxy-2-methyl-2H-thieno[2,3-e]-1,2-thiazine-3-carboxamide 1,1-dioxide]: the figures for the IC50 in assay [1] and in assay [2] were 580 nM and 3600 nM, respectively.

As for `CN1C(C(=O)Nc2ccccn2)=C(O)c2sc(Cl)cc2S1(=O)=O` [Compound A, reference compound], the IC50 was more than 10000 nM in assay [1] and 20 nM in assay [2].

With `CN1C(C(=O)Nc2nccs2)=C(O)c2sc(Cl)cc2S1(=O)=O` [Compound 1, 6-Chloro-4-hydroxy-2-methyl-N-(2-thiazolyl)-2H-thieno[2,3-e]-1,2-thiazine-3-carboxamide 1,1-dioxide], the IC50 is more than 10000 nM in assay [1] and 17 nM in assay [2].

On to `CN1C(C(=O)Nc2nc(-c3ccc(Oc4ccc(F)cc4)o3)cs2)=C(O)c2sc(Cl)cc2S1(=O)=O` [Compound 4, 6-Chloro-N-{4-[5-(4-fluorophenoxy)-2-furanyl]-2-thiazolyl}-4-hydroxy-2-methyl-2H-thieno[2,3-e]-1,2-thiazine-3-carboxamide 1,1-dioxide], for which the IC50 worked out at 470 nM in assay [1] and 3400 nM in assay [2].

Take `CN1C(C(=O)Nc2nc(-c3cc4ccccc4s3)co2)=C(O)c2sc(Cl)cc2S1(=O)=O` [Compound 12, N-[4-(2-Benzo[b]thienyl)-2-oxazolyl]-6-chloro-4-hydroxy-2-methyl-2H-thieno[2,3e]-thiazine-3-carboxamide 1,1-dioxide]: the IC50 is 2700 nM in assay [1] and 190 nM in assay [2].

Take `CN1C(C(=O)Nc2nc(-c3ccccc3)cs2)=C(O)c2sc(-c3ccco3)cc2S1(=O)=O` [Compound 3, 6-(2-Furyl)-4-hydroxy-2-methyl-N-(4-phenyl-2thiazolyl)-2H-thieno[2,3-e]-1,2-thiazine-3-carboxamide 1,1-dioxide]: the values for the IC50 in assay [1] and in assay [2] were 5200 nM and 17 nM, respectively.

With `CN1C(C(=O)Nc2nc(-c3cc4ccccc4o3)cs2)=C(O)c2sc(Cl)cc2S1(=O)=O` [Compound 8, N-[4-(2-Benzo[b]furanyl)-2-thiazolyl]-6-chloro-4-hydroxy-2-methyl-2H-thieno[2,3-e]-1,2-thiazine-3-carboxamide 1,1-dioxide], the concentration for half-maximal inhibition (IC50) was 2200 nM in assay [1] and 100 nM in assay [2].

As to `CN1C(C(=O)Nc2nc(-c3ccccc3)cs2)=C(O)c2sc(Cl)cc2S1(=O)=O` [Compound 2, 6-Chloro-4-hydroxy-2-methyl-N-(4phenyl-2-thiazolyl)-2H-thieno[2,3-e]-1,2-thiazine-3-carboxamide 1,1-dioxide], the values for the IC50 in assay [1] and in assay [2] were more than 10000 nM and 27 nM, respectively.

The values above are taken from US5679678A, “Thienithiazine derivatives” (Chemisch Pharmazeutische Forschungsgesellschaft m.b.H., priority 1991, dated 1997).
